For 15 molecules, IC50 results are on record in US9549932B2, “2-(morpholin-4-yl)-1,7-naphthyridines” (BAYER PHARMA AKTIENGESELLSCHAFT, priority 2014, dated 2017).

full-length human ATR protein, sequence (Q13535 other isoform, or with tags, fused parts or gaps): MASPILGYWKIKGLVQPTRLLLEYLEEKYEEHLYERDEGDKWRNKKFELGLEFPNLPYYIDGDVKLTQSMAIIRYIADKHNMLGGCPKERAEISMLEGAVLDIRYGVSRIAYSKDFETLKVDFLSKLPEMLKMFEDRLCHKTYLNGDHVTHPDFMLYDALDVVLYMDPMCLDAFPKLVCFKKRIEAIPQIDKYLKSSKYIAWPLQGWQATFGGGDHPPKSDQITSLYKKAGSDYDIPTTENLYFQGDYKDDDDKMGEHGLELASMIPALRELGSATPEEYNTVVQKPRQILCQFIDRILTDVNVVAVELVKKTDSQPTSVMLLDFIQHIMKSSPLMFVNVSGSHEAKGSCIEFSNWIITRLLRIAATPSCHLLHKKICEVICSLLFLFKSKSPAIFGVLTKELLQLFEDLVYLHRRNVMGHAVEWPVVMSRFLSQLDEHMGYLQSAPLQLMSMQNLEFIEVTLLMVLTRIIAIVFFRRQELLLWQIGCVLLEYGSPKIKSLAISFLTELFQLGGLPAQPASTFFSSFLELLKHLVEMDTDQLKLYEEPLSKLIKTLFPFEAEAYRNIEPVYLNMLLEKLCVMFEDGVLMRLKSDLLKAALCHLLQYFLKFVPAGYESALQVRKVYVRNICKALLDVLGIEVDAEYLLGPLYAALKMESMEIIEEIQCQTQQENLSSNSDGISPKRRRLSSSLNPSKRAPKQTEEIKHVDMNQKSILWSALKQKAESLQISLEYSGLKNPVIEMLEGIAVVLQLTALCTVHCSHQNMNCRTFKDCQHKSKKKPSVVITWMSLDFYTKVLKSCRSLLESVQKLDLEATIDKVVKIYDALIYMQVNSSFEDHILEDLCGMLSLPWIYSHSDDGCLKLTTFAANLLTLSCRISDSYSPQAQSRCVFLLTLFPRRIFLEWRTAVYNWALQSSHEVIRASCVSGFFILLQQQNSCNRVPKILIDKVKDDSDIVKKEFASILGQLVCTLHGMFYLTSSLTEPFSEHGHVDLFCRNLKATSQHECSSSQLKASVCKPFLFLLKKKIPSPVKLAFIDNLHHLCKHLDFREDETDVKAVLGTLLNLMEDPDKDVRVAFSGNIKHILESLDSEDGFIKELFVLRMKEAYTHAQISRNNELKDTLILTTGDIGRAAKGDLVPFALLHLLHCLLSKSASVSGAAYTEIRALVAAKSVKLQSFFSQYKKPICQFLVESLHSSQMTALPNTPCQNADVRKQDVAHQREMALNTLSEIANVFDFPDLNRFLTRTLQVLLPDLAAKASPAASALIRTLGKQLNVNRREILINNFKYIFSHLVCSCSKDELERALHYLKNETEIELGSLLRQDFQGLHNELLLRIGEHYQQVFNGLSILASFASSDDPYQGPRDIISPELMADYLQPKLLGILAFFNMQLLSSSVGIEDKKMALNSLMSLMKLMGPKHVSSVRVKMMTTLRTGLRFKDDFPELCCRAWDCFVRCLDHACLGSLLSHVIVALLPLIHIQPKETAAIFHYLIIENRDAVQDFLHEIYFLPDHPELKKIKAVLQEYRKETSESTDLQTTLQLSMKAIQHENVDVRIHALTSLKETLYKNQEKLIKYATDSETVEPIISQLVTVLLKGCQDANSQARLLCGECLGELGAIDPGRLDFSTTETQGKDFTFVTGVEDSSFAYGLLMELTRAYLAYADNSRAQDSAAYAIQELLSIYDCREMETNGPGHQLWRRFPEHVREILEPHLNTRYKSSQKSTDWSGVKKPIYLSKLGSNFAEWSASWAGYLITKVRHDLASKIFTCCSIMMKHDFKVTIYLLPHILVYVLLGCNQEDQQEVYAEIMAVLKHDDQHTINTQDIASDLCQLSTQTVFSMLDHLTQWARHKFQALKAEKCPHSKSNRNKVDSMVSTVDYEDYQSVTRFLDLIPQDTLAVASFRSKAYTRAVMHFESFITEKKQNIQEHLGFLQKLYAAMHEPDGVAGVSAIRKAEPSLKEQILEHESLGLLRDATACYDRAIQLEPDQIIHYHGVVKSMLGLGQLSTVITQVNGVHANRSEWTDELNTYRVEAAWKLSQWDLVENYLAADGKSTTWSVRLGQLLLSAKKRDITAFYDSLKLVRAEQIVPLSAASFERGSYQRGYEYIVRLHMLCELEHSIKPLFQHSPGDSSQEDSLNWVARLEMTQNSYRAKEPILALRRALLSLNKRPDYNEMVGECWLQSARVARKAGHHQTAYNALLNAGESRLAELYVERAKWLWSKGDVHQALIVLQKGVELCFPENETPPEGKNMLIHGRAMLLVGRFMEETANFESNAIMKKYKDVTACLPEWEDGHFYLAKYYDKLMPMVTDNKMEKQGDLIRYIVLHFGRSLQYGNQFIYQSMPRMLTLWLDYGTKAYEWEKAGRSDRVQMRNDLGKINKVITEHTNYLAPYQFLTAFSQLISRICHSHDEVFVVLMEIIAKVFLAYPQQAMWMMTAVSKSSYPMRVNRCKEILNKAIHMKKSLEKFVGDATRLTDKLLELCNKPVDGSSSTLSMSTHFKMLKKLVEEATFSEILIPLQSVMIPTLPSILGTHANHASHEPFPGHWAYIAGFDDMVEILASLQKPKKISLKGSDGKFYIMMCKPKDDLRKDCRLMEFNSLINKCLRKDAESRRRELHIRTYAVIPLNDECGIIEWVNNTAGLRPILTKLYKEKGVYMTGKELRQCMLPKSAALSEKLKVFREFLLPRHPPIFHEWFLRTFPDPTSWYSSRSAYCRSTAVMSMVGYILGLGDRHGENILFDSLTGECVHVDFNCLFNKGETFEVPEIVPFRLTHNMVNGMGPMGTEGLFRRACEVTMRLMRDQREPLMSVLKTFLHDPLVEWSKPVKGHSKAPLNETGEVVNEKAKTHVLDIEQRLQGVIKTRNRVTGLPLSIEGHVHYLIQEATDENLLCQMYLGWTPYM
full-length human ATR protein, sequence (Q8WXE1 other isoform, or with tags, fused parts or gaps partner): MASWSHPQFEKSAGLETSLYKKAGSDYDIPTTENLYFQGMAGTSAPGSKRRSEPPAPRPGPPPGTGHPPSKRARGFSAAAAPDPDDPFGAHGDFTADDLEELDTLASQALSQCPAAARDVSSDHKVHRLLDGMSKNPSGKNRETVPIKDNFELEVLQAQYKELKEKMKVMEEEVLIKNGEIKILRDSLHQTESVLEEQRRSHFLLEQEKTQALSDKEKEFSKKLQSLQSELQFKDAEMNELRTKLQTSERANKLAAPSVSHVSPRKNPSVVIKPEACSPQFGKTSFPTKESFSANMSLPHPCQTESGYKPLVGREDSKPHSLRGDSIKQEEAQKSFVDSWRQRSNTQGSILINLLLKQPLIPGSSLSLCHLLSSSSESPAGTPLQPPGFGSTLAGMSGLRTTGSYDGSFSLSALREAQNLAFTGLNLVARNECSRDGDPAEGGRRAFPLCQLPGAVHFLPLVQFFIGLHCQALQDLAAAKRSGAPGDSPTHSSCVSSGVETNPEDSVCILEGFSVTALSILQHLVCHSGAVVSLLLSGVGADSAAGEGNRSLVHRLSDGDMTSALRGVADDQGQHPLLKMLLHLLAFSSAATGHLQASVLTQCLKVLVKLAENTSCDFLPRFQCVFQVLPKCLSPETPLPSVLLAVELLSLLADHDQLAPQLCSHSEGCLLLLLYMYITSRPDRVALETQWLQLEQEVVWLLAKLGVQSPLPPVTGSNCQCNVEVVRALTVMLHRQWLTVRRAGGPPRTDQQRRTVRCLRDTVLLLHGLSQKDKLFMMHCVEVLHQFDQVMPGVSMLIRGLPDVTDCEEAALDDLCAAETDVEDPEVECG

The test addresses full-length human ATR protein (Homo sapiens (Human), UniProt Q13535). The test can be described thus: Binding assay ATR (TR-FRET tracer displacement). The settings on record: tracer A, TR-FRET; read-out: ATR binding (tracer A) IC50. In a few lines: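 Full-length human GST-ATR co-purified with ATRIP, pre-complexed 30 min at 22 °C with anti-GST-Tb antibody, then pre-bound with compound 10 min. Tracer A or B added (2 µl of 100 nM solution), 30 min at 22 °C.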
(TR-FRET usually uses a lanthanide donor and a delayed reading to cut background.)
As to `Fc1ccc(-c2cc(N3CCOCC3)nc3c(-c4ccn[nH]4)nccc23)cn1` [Example 360, 4-(6-fluoropyridin-3-yl)-2-(morpholin-4-yl)-8-(1H-pyrazol-5-yl)-1,7-naphthyridine], the half-maximal inhibitory concentration (IC50) worked out at 0.0938 µM.
On to `COc1ncccc1-c1cc(N2CCOCC2)nc2c(-c3ccn[nH]3)nccc12` [Example 362, 4-(2-methoxypyridin-3-yl)-2-(morpholin-4-yl)-8-(1H-pyrazol-5-yl)-1,7-naphthyridine], for which the IC50 stood at 0.295 µM.
For the molecule `c1ccc2c(-c3cc(N4CCOCC4)nc4c(-c5ccn[nH]5)nccc34)cncc2c1` [Example 363, 4-(isoquinolin-4-yl)-2-(morpholin-4-yl)-8-(1H-pyrazol-5-yl)-1,7-naphthyridine], the IC50 worked out at 0.191 µM.
In the case of `Fc1cnccc1-c1cc(N2CCOCC2)nc2c(-c3ccn[nH]3)nccc12` [Example 365, 4-(3-fluoropyridin-4-yl)-2-(morpholin-4-yl)-8-(1H-pyrazol-5-yl)-1,7-naphthyridine], the 50% inhibitory concentration (IC50) amounted to 0.103 µM.
In the case of `Fc1ccc(-c2cc(N3CCOCC3)nc3c(-c4ccn[nH]4)nccc23)c(F)n1` [Example 366, 4-(2,6-difluoropyridin-3-yl)-2-(morpholin-4-yl)-8-(1H-pyrazol-5-yl)-1,7-naphthyridine], the 50% inhibitory concentration (IC50) turned out to be 0.0521 µM.
On to `Cn1cc(-c2cc(N3CCOCC3)nc3c(-c4ccn[nH]4)nccc23)cn1` [Example 367, 4-(1-methyl-1H-pyrazol-4-yl)-2-(morpholin-4-yl)-8-(1H-pyrazol-5-yl)-1,7-naphthyridine], for which the IC50 worked out at 0.215 µM.
Regarding `COc1ccc2c(c1)cc(-c1cc(N3CCOCC3)nc3c(-c4ccn[nH]4)nccc13)n2C(=O)OC(C)(C)C` [Example 368, tert-butyl 5-methoxy-2-[2-(morpholin-4-yl)-8-(1H-pyrazol-5-yl)-1,7-naphthyridin-4-yl]-1H-indole-1-carboxylate], the half-inhibitory concentration (IC50) was found to be 3.95 µM.
Turning to `c1cc(-c2nccc3c(-c4ccc(N5CCOCC5)nc4)cc(N4CCOCC4)nc23)[nH]n1` [Example 369, 2-(morpholin-4-yl)-4-[6-(morpholin-4-yl)pyridin-3-yl]-8-(1H-pyrazol-5-yl)-1,7-naphthyridine], the concentration for half-maximal inhibition (IC50) stood at 0.115 µM.
Take `Cc1cscc1-c1cc(N2CCOCC2)nc2c(-c3ccn[nH]3)nccc12` [Example 370, 4-(4-methylthiophen-3-yl)-2-(morpholin-4-yl)-8-(1H-pyrazol-5-yl)-1,7-naphthyridine]: the IC50 was 0.035 µM.
In the case of `c1csc(-c2cc(N3CCOCC3)nc3c(-c4ccn[nH]4)nccc23)c1` [Example 371, 2-(morpholin-4-yl)-8-(1H-pyrazol-5-yl)-4-(thiophen-2-yl)-1,7-naphthyridine], the IC50 amounted to 0.122 µM.
For `c1cc(-c2nccc3c(-c4ccsc4)cc(N4CCOCC4)nc23)[nH]n1` [Example 372, 2-(morpholin-4-yl)-8-(1H-pyrazol-5-yl)-4-(thiophen-3-yl)-1,7-naphthyridine], the IC50 was 0.134 µM.
Consider `Cc1ccsc1-c1cc(N2CCOCC2)nc2c(-c3ccn[nH]3)nccc12` [Example 373, 4-(3-methylthiophen-2-yl)-2-(morpholin-4-yl)-8-(1H-pyrazol-5-yl)-1,7-naphthyridine], for which the IC50 is 0.0381 µM.
Consider `COc1ccncc1-c1cc(N2CCOCC2)nc2c(-c3ccn[nH]3)nccc12` [Example 375, 4-(4-methoxypyridin-3-yl)-2-(morpholin-4-yl)-8-(1H-pyrazol-5-yl)-1,7-naphthyridine], for which the concentration for half-maximal inhibition (IC50) stood at 0.894 µM.
`Cc1ccc2c(c1)cc(-c1cc(N3CCOCC3)nc3c(-c4ccn[nH]4)nccc13)n2C(=O)OC(C)(C)C` [Example 377, tert-butyl 5-methyl-2-[2-(morpholin-4-yl)-8-(1H-pyrazol-5-yl)-1,7-naphthyridin-4-yl]-1H-indole-1-carboxylate]: the half-inhibitory concentration (IC50) was 2.99 µM.
`Cc1noc(C)c1-c1cc(N2CCOCC2)nc2c(-c3ccn[nH]3)nccc12` [Example 379, 4-(3,5-dimethyl-1,2-oxazol-4-yl)-2-(morpholin-4-yl)-8-(1H-pyrazol-5-yl)-1,7-naphthyridine]: the half-inhibitory concentration (IC50) was found to be 0.0698 µM.

What is called IC50 is the concentration that gives 50% inhibition.
